Test results published in ChEMBL document CHEMBL6071136, “Discovery of macrocyclic covalent inhibitors for severe acute respiratory syndrome coronavirus 2 3CL protease” (Bioorg Med Chem, 2024).

Columns and labels:
[1] = Metabolic stability in rat liver microsomes assessed as half life measured upto 60 mins in presence of NADPH by LC/MS-MS analysis; assay type: ADME, Microsome
[2] = Metabolic stability in human liver microsomes assessed as half life measured upto 60 mins in presence of NADPH by LC/MS-MS analysis; assay type: ADME, Microsome
[3] = Apparent permeability across apical to basolateral side in human Caco-2 cells incubated for 2 hrs by LC-MS/MS analysis; assay type: ADME, cell-based
[4] = Cmax in Sprague-Dawley rat at 10 mg/kg, po measured upto 24 hrs by LC/MS-MS analysis; assay type: ADME, organism-based; details: in vivo
[5] = Half-life in Sprague-Dawley rat at 10 mg/kg, po measured upto 24 hrs by LC/MS-MS analysis; assay type: ADME, organism-based; details: in vivo
[6] = AUClast in Sprague-Dawley rat at 10 mg/kg, po measured upto 24 hrs by LC/MS-MS analysis; assay type: ADME, organism-based; details: in vivo
[7] = biological target: Replicase polyprotein 1ab (Severe acute respiratory syndrome coronavirus 2, UniProt P0DTD1); test: Inhibition of SARS-CoV-2 3CL protease using Dabcyl-KTSAVLQSGFRKM-(Edans) as substrate preincubated for 30 mins followed by substrate addition and measured after 60 mins by fluorescence based microplate reader assay
[8] = tested on: SARS-CoV-2; test: microbe, parasite or virus in culture; details: Severe acute respiratory syndrome coronavirus 2, Huh-7, 24 h
[9] = Metabolic stability in human liver S9 fraction assessed as half life measured upto 60 mins by LC/MS-MS analysis; assay type: ADME, subcellular
[10] = Efflux ratio of apparent permeability across basolateral to apical side over apical to basolateral side in human Caco-2 cells; assay type: ADME, cell-based
[11] = Stability of compound in FaSSGF at 10 uM measured after 4 hrs by LC-MS analysis; assay type: physicochemical
[12] = Tmax in Sprague-Dawley rat at 10 mg/kg, po measured upto 24 hrs by LC/MS-MS analysis; assay type: ADME, organism-based; details: in vivo

Row | Compound | half-life [1] [min] | half-life [2] [min] | Papp A→B at 2 h [3] [×10⁻⁶ cm/s] | Cmax [4] [ng/mL] | half-life [5] [min] | AUC(0-t) at 24 h [6] [ng·h/mL] | IC50 [7] [nM] | EC50 [8] [nM] | half-life [9] [min] | efflux ratio [10] | Stability [11] | Tmax [12] [min]
1 | CC(C)(C)[C@H](NC(=O)C(F)(F)F)C(=O)N1C[C@H]2[C@@H]([C@H]1C(=O)N[C@H](C#N)C[C@@H]1CCNC1=O)C2(C)C | 127 | 20.6 | 0.27 | 2840 | 76.2 | 2020 | – | – | – | – | – | –
2 | CC1(C)CCCC[C@@H]2C[C@@H](C[C@@H](C#N)NC(=O)[C@@H]3[C@@H]4[C@H](CN3C(=O)[C@H]1NC(=O)C(F)(F)F)C4(C)C)C(=O)N2 | – | 4.4 | – | – | – | – | 10 | 84 | – | – | – | –
3 | CC1(C)CNC(=O)[C@@H]2C[C@@H](C[C@@H](C#N)NC(=O)[C@@H]3[C@@H]4[C@H](CN3C(=O)[C@H]1NC(=O)COc1ccc(F)cc1F)C4(C)C)C(=O)N2 | – | 6.3 | – | – | – | – | 70 | 1550 | – | – | – | –
4 | CC1(C)COC(=O)[C@@H]2C[C@@H](C[C@@H](C#N)NC(=O)[C@@H]3[C@@H]4[C@H](CN3C(=O)[C@H]1NC(=O)C1CC1)C4(C)C)C(=O)N2 | – | 154 | 0.08 | – | – | – | 12 | 190 | > 180 | 22 | – | –
5 | CC1(C)COC(=O)[C@@H]2C[C@@H](C[C@@H](C#N)NC(=O)[C@@H]3[C@@H]4[C@H](CN3C(=O)[C@H]1NC(=O)C(F)(F)c1ccc(F)cc1)C4(C)C)C(=O)N2 | – | 6 | 0.1 | – | – | – | 22 | 130 | – | 206 | – | –
6 | CC1(C)CNC(=O)[C@@H]2C[C@@H](C[C@@H](C#N)NC(=O)[C@@H]3[C@@H]4[C@H](CN3C(=O)[C@H]1NC(=O)C1CC1)C4(C)C)C(=O)N2 | – | > 180 | – | – | – | – | 32 | 6570 | – | – | – | –
7 | CC1(C)CCCC[C@@H]2C[C@@H](C[C@@H](C#N)NC(=O)[C@@H]3[C@@H]4[C@H](CN3C(=O)[C@H]1NC(=O)OCc1ccccc1)C4(C)C)C(=O)N2 | – | – | – | – | – | – | 27 | 31 | – | – | – | –
8 | CC1(C)COC(=O)[C@@H]2C[C@@H](C[C@@H](C#N)NC(=O)[C@@H]3[C@@H]4[C@H](CN3C(=O)[C@H]1NC(=O)CC1CC1)C4(C)C)C(=O)N2 | – | 78 | – | – | – | – | 21 | 310 | – | – | – | –
9 | COC(=O)N[C@@H]1C(=O)N2C[C@H]3[C@@H]([C@H]2C(=O)N[C@H](C#N)C[C@@H]2C[C@H](NC2=O)C(=O)OCCC1(C)C)C3(C)C | – | > 180 | 0.03 | – | – | – | 8.9 | 179 | – | 65 | – | –
10 | CC1(C)COC(=O)[C@@H]2C[C@@H](C[C@@H](C#N)NC(=O)[C@@H]3[C@@H]4[C@H](CN3C(=O)[C@H]1NC(=O)C(F)(F)F)C4(C)C)C(=O)N2 | – | > 180 | 0.5 | – | – | – | 34 | 181 | > 180 | 34 | – | –
11 | CC1(C)CNC(=O)[C@@H]2C[C@H](C[C@@H](C#N)NC(=O)[C@@H]3[C@@H]4[C@H](CN3C(=O)[C@H]1NC(=O)OCc1ccccc1)C4(C)C)C(=O)N2 | – | – | 0.05 | – | – | – | 12 | – | – | 103 | – | –
12 | COC(=O)N[C@@H]1C(=O)N2C[C@H]3[C@@H]([C@H]2C(=O)N[C@H](C#N)C[C@@H]2C[C@@H](CCCCC1(C)C)NC2=O)C3(C)C | – | 13.9 | – | – | – | – | 4.6 | 100 | – | – | – | –
13 | CN1CC(C)(C)[C@H](NC(=O)OCc2ccccc2)C(=O)N2C[C@H]3[C@@H]([C@H]2C(=O)N[C@H](C#N)C[C@@H]2C[C@H](NC2=O)C1=O)C3(C)C | – | – | 0.17 | – | – | – | > 10000 | > 10000 | 0.17 | 12 | – | –
14 | Cc1cccc(C)c1OCC(=O)N[C@@H]1C(=O)N2C[C@H]3[C@@H]([C@H]2C(=O)N[C@H](C#N)C[C@@H]2C[C@H](NC2=O)C(=O)NCC1(C)C)C3(C)C | – | 4 | 0.13 | – | – | – | 320 | 5570 | – | 64 | – | –
15 | CC1(C)CNC(=O)[C@@H]2C[C@H](C[C@@H](C#N)NC(=O)[C@@H]3[C@@H]4[C@H](CN3C(=O)[C@H]1NC(=O)C(F)(F)F)C4(C)C)C(=O)N2 | – | > 180 | 0.09 | – | – | – | 75 | – | – | 10 | – | –
16 | CC(C)(C)C(=O)N[C@@H]1C(=O)N2C[C@H]3[C@@H]([C@H]2C(=O)N[C@H](C#N)C[C@@H]2C[C@H](NC2=O)C(=O)NCC1(C)C)C3(C)C | – | – | – | – | – | – | 307 | – | – | – | – | –
17 | COC(=O)N[C@@H]1C(=O)N2C[C@H]3[C@@H]([C@H]2C(=O)N[C@H](C#N)C[C@@H]2C[C@H](NC2=O)C(=O)OCC1(C)C)C3(C)C | 76.2 | > 180 | 0.16 | 87.5 | 68.4 | 72.9 | 8.6 | 52 | > 180 | 30 | Stable | 20
18 | CC1(C)COC(=O)[C@@H]2C[C@@H](C[C@@H](C#N)NC(=O)[C@@H]3[C@@H]4[C@H](CN3C(=O)[C@H]1NC(=O)OC1CC1)C4(C)C)C(=O)N2 | – | > 180 | 0.08 | – | – | – | 17 | 67 | > 180 | 20 | – | –
19 | CC1(C)COC(=O)[C@@H]2C[C@@H](C[C@@H](C#N)NC(=O)[C@@H]3[C@@H]4[C@H](CN3C(=O)[C@H]1NC(=O)C(F)(F)Cc1ccccc1)C4(C)C)C(=O)N2 | – | 1.7 | 0.08 | – | – | – | 23 | 49 | – | 154 | – | –
20 | CN1CC(C)(C)[C@H](NC(=O)C(F)(F)F)C(=O)N2C[C@H]3[C@@H]([C@H]2C(=O)N[C@H](C#N)C[C@@H]2C[C@H](NC2=O)C1=O)C3(C)C | – | – | – | – | – | – | > 10000 | > 10000 | – | – | – | –
21 | CC1(C)COC(=O)[C@@H]2C[C@@H](C[C@@H](C#N)NC(=O)[C@@H]3[C@@H]4[C@H](CN3C(=O)[C@H]1NC(=O)OCc1ccccc1)C4(C)C)C(=O)N2 | – | 6.5 | 0.16 | – | – | – | 6.4 | 25 | – | 108 | – | –
22 | CC1(C)CNC(=O)[C@@H]2C[C@@H](C[C@@H](C#N)NC(=O)[C@@H]3[C@@H]4[C@H](CN3C(=O)[C@H]1NC(=O)C(F)(F)F)C4(C)C)C(=O)N2 | – | > 180 | – | – | – | – | 18 | 264 | – | – | – | –
23 | CC1(C)COC(=O)[C@@H]2C[C@@H](C[C@@H](C#N)NC(=O)[C@@H]3[C@@H]4[C@H](CN3C(=O)[C@H]1NC(=O)C(F)(F)C1CC1)C4(C)C)C(=O)N2 | 34.8 | 71 | 0.13 | 131 | 38.5 | 119 | 14 | 36 | – | 96.4 | – | 20
24 | CC1(C)CNC(=O)[C@@H]2C[C@@H](C[C@@H](C#N)NC(=O)[C@@H]3[C@@H]4[C@H](CN3C(=O)[C@H]1NC(=O)OCc1ccccc1)C4(C)C)C(=O)N2 | 4.3 | 4.3 | – | – | – | – | 8.8 | 73 | – | – | – | –
